Laboratory results taken from patent US20080188449A1, “Treatment of Conditions Caused By Calcium Abnormalities” (priority 2004, published 2008).

What was measured:
Format in all cases: cell-based
NFκB transactivation = experiment: κB-luciferase reporter assay (TNF-α induced); conditions: 10 nM triptolide+TNF-α, after 24 hours
HeLa cells = experiment: Viability of parvalbumin-GFP transfected HeLa cells; conditions: 100 nM
Source text: To investigate further the role of calcium in triptolide function Applicants utilized a system to buffer intracellular calcium levels. Various GFP-parvalbumin (PV) fusion proteins can be specifically localized to either the nucleus or the cytoplasm through a nuclear localization or exclusion signal (NLS or NES, respectively) (Pusl, et al., 2002, J Biol Chem 277, 27517-27527). Parvalbumin has two EF-hand calcium binding domains and can efficiently reduce the availability of free calcium in the cell (Pauls, et al., 1996, Biochim Biophys Acta 1306, 39-54). HeLa cells were transiently transfected with the GFP vector control, NES-PV-GFP, or NLS-PV-GFP in calcium containing media and efficient expression of each construct was determined by GFP localization (FIG. 4A). Normal cell growth was first assessed throughout 48 hours with each of the constructs. […] For triptolide experiments, cells were transfected and allowed to express the construct for 24 hours before the addition of 100 nM triptolide. After 24 and 48 hours of treatment, cells were assessed for viability. […]
All parvalbumin-GFP constructs and control vectors (Pusl, et al., 2002, J Biol Chem 277, 27517-27527) were a gift of Anton Bennett (Yale University). […] Cell viability was assessed at 24 and 48 hours post triptolide addition by morphology and trypan blue dye exclusion.

polycystin-2 [1] = target: T1, polycystin-2 (Mus musculus, UniProt O35245); experiment: Fluo-4 calcium imaging in murine kidney epithelial cells; conditions: 100 nM perfused, Pkd1^−/− cells
T1 construct: murine cell lines were derived from knockout and transgenic mice as previously reported; endogenous in cells; host or cells: Murine kidney proximal tubule epithelial cells, Pkd1-/- (MN24)
T1 sequence (O35245 1-966): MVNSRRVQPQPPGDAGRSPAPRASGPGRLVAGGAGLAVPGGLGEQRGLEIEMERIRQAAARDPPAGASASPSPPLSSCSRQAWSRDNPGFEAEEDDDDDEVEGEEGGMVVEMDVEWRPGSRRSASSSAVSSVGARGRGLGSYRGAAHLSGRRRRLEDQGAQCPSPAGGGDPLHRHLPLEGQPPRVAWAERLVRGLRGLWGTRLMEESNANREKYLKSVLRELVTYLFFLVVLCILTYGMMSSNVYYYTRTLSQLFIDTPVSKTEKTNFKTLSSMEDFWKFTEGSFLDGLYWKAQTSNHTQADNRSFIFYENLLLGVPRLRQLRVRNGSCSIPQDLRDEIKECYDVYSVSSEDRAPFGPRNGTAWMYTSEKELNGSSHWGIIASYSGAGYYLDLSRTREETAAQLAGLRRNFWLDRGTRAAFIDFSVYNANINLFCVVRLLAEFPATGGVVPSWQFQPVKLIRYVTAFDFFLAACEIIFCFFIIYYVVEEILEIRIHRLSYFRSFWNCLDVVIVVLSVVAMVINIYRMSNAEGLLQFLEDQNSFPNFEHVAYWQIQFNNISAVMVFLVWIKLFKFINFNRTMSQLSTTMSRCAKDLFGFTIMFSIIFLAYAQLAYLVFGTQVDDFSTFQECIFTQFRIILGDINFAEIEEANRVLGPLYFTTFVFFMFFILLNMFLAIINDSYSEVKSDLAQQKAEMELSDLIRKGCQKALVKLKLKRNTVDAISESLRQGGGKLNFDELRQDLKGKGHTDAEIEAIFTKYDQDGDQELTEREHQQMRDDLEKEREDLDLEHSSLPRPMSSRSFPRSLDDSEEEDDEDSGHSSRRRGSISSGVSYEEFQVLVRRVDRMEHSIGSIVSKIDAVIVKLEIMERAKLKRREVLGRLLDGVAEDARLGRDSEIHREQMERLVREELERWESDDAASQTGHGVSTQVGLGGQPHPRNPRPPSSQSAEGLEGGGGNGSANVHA
Source text: (§1) Murine kidney epithelial cell lines with differing polycystin-1 or polycystin-2 expression were used to establish a cellular based mechanism for polycystin-2 mediated calcium release in response to triptolide. Because the biochemical purification analysis identified polycystin-2 as a putative triptolide binding protein, Applicants assessed whether the calcium release was dependent upon expression of polycystin-1. Epithelial cells derived from the proximal nephric tubules of Pkd1^−/− mice were first examined to determine if calcium release was observed when 100 nM of triptolide was perfused through the imaging chamber. […] To strengthen the evidence that polycystin-2 was necessary for calcium release elicited by triptolide addition, it was reconstituted by stable expression of Pkd2 into the background of Pkd2^−/− cells, which were assessed for sensitivity to triptolide.
(§2) Cells were plated on coverslips and loaded with Fluo-4 (Molecular Probes) diluted in DMSO/pluronic for 30 minutes prior to imaging. Cells were perfused with a calcium imaging buffer (HEPES, NaCl, KCl, MgSO4 and CaCl2)±100 nM triptolide. All cell traces are indicative of individual cellular fluorescence and calcium release. Data is presented as change of fluorescence over baseline control (no triptolide addition).

polycystin-2 [2] = experiment: as above
Source text: as §1, §2

Q: How did the luciferase activity induction (NFκB transactivation) turn out when `CC(C)[C@]12O[C@H]1[C@@H]1O[C@]13[C@]1(O[C@H]1C[C@H]1C4=C(CC[C@@]13C)C(=O)OC4)[C@@H]2O` [triptolide, Triptolide] was run?
A: > 20 fold

Q: What about the cell death (HeLa cells; all transfection conditions, 48 hours) of the same compound?
A: complete cell death

Q: What about the “cells rounded and no longer viable” value (HeLa cells; control GFP vector or NLS-PV-GFP, 24 hours) of the same compound?
A: 50%

Q: And the calcium release (polycystin-2 [1])?
A: clear rise in intracellular calcium levels

Q: What about the calcium release (polycystin-2 [2]; 100 nM perfused, Pkd2^−/− cells) of the same compound?
A: no calcium release was detected

Q: What about the calcium release (polycystin-2 [2]; 100 nM, Pkd2 re-expressed in Pkd2^−/− cells) of the same compound?
A: restored calcium release
